Laboratory results: ChEMBL document CHEMBL1129747, “Head group analogs of arachidonylethanolamide, the endogenous cannabinoid ligand” (J Med Chem, 1996)

Columns and labels:
[1] = target: Cannabinoid receptor 1 (Rattus norvegicus, UniProt P20272); assay: Displacement of [3H]CP-55940 from Cannabinoid receptor 1 of rat forebrain membranes; assay type: cell membranes, Membrane
[2] = target: Cannabinoid receptor 2 (Mus musculus, UniProt P47936); assay: Compound was evaluated for its binding affinity for mouse spleen Cannabinoid receptor 2
Chain of Cannabinoid receptor 2 (P47936 whole entry): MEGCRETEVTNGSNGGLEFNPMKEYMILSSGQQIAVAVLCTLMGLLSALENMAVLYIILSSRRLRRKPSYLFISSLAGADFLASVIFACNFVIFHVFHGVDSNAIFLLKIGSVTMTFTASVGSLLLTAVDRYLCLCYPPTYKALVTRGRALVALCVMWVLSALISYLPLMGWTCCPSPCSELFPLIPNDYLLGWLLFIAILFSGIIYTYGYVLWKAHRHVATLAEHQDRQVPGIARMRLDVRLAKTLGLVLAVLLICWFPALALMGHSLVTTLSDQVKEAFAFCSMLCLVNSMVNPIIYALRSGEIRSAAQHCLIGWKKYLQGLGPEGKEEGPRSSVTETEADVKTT

Chain of Cannabinoid receptor 1 (P20272 whole entry): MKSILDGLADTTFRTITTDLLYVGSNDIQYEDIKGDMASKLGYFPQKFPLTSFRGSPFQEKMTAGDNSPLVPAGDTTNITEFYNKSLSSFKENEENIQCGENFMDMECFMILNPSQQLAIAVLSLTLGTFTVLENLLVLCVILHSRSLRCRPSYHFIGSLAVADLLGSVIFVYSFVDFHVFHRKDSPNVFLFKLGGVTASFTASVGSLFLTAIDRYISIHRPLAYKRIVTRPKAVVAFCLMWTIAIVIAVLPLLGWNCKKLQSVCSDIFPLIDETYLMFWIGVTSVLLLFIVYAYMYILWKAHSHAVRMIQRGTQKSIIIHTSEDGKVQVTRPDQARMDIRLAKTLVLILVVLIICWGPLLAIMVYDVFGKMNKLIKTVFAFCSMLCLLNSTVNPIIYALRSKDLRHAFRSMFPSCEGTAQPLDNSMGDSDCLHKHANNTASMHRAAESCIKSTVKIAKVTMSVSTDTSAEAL

Row | SMILES | Ki [1] [nM] | Ki [2] [nM]
1 | CCCCC/C=C\C/C=C\C/C=C\C/C=C\CCCC(=O)Nc1cccc(O)c1 | 1560 | 3100
2 | CCCCC/C=C\C/C=C\C/C=C\C/C=C\CCCC(=O)Nc1ccccc1O | 1660 | 2100
3 | CCCCC/C=C\C/C=C\C/C=C\C/C=C\CCCC(=O)NCc1ccc(O)cc1 | 217 | 11000
4 | CCCCC/C=C\C/C=C\C/C=C\C/C=C\CCCC(=O)N[C@H](C)CO [METHANANDAMIDE] | – | 815
5 | CCCCC/C=C\C/C=C\C/C=C\C/C=C\CCCC(=S)NCCO | 1380 | 6300
6 | CCCCC/C=C\C/C=C\C/C=C\C/C=C\CCCC(=O)Nc1ccc(O)cc1 | 1760 | 13000
7 | CCCCC/C=C\C/C=C\C/C=C\C/C=C\CCCC(=O)NCCO [ANANDAMIDE] | – | 1930
8 | CCCCC/C=C\C/C=C\C/C=C\C/C=C\CCCC(=O)N[C@H]1CCCC[C@@H]1O | > 3000 | –
9 | CCCCC/C=C\C/C=C\C/C=C\C/C=C\CCCC(=O)NCC(O)CC (stereo not given) | 203 | –
10 | CCCCC/C=C\C/C=C\C/C=C\C/C=C\CCCC(=O)NC(CO)CO | 363 | –
